Data published in patent US8901313B2, “6,5-heterocyclic propargylic alcohol compounds and uses therefor” (Genentech, Inc., priority 2011, dated 2014).

Assays:
[1] = system: human embryonic kidney 293 cells; assay: 293-NIK TK Renilla Luciferase reporter (general measure of cell viability); type: cell-based; conditions: HEK293, 293 cells, constitutive Renilla luciferase, 24 hours, read-out: inhibitory value (IC50) for 293-NIK TK Renilla Luciferase activity
Text: (1) The first assay was used to profile whether a test compound can inhibit the NF-kB signally through NIK inhibition without affecting cell viability. In this assay, human embryonic kidney 293 cells was stably transfected with a tetracycline-inducible NIK DNA construct containing a cytomegalovirus promoter plus two reporter DNA constructs. One reporter encoded firefly luciferase under the control of three repeats of an NF-kB response element from the ELAM-1 gene and reflects the level of NIK activity in the cells, whereas the other reporter constitutively expressed Renilla luciferase under the control of the herpes simplex virus thymidine kinase promoter and served as a general measure of cell viability. Cells were incubated with different concentrations of compounds (0.2% DMSO final) in medium containing 1 ug/mL doxycycline and 10% tet-system approved fetal bovine serum (Clontech) for 24 hours, after which the reporters' signals were detected using the Dual Glo luciferase detection system (Promega) according to the vendor's protocol. The compounds listed in Table 1 have the corresponding inhibitory value (IC50 in micromolar) for 293-NIK NF-kB-Luciferase activity (values for compounds are presented in the same order as found in Table 1): na, 0.059, na, na, na, 0.105, 0.027, na, 20, 1.2, na, 1.8, 0.0231, 0.879, 0.0361, 0.582, na, 0.142, na, 0.403, 0.059, 0.0331, na, na, 0.0573, 1.5, na, na, 0.0722, na, na, 0.589, 12.7, 3.7, 14.9, na, 0.707, 1, 0.0311, 0.332, 0.309, 0.0142, 0.051, 2.8, 0.129, na, na, 1.5, na, na, na, 1.3, 0.062, 20, 0.31, 0.104, 0.091, 0.037, 0.085, 0.279, na, 0.305, 0.064, 0.332, 0.133, 0.168, 0.217, 0.553, na and na.
The compounds in listed in Table 1 have the corresponding inhibitory value (IC50 in micromolar) for 293-NIK TK Renilla Luciferase activity: (values for compounds are presented in the same order as found in Table 1): 6.4, 3.6, 20, na, 1.6, 9.3, 18.5, na, na, 2.6, na, na, na, na, na, na, na, na, na, na, na, na, na, na, na, na, na, na, na, na, na, na, na, na, na, na, na, na, na, na, na, na, na, na, na, na, na, >20, na, na, na, 20, >20, 17, 1.3, 15.6, 0.967, 2.7, 11.2, 5.1, na, 20, 20, 20, 20, 20, 17.6, 20, na and na.

[2] = target: T1, nuclear factor-kappa B (NF-kB)-inducing kinase (NIK) (Homo sapiens, UniProt Q99558); assay: NIK Enzyme Inhibition Assay (Transcreener ADP assay); type: biochemical; conditions: purified NIK 0.2-1 nM, 10 uM ATP, fluorescence polarization, Morrison's quadratic equation; read-out: inhibitory value (Ki) for NIK
T1 construct: made in house; host or cells: baculovirus-infected insect cells

[3] = system: NF-kB signaling through NIK in human embryonic kidney 293 cells; assay: 293-NIK NF-kB-Luciferase reporter assay; type: cell-based; conditions: HEK293, 293 cells with tetracycline-inducible NIK, 1 ug/mL doxycycline, 24 hours, read-out: inhibitory value (IC50) for 293-NIK NF-kB-Luciferase activity
Method in brief: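 HEK293 cells stably carrying tetracycline-inducible NIK plus NF-kB (ELAM-1 element) firefly luciferase and constitutive TK-Renilla viability reporter. Compounds (0.2% DMSO) incubated 24 h with 1 ug/mL doxycycline; Dual Glo luminescence read, IC50 from firefly signal.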

[4] = system: REL-A (p65) nuclear translocation in HeLa cells; assay: NIK RelA Translocation Assay (classical NF-kB signaling); type: cell-based; conditions: Homo sapiens; HeLa cells, compounds 4.5 hours, 10 ng/mL TNF-α 30 minutes; read-out: inhibitory value (IC50) for NIK RelA Translocation Assay
Method in brief: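 HeLa cells in 10% FBS medium were preincubated 4.5 h with compound (0.2% DMSO final), then stimulated with 10 ng/mL TNF-α for 30 min. After fixation, anti-REL-A (p65) immunostaining and DRAQ5 nuclear stain, high-content imaging gave the nuclear/cytoplasmic intensity ratio; IC50 from signal versus concentration.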

[5] = system: p52 (NF-kB2) nuclear translocation in HeLa cells; assay: NIK p52 Translocation Assay (non-classical NF-kB signaling); type: cell-based; conditions: Homo sapiens; HeLa cells, 100 ng/mL anti-lymphotoxin beta receptor antibody, 5 hours; read-out: inhibitory value (IC50) for NIK p52 Translocation Assay
Method in brief: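 HeLa cells in 10% FBS medium were exposed to compound (0.2% DMSO final) and stimulated with 100 ng/mL anti-lymphotoxin β receptor antibody for 5 h. Fixed cells were immunostained for p52 with DRAQ5 counterstain and imaged by high-content imaging. IC50 from nuclear/cytoplasmic p52 signal ratio vs concentration.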

T1 sequence (Q99558 whole entry): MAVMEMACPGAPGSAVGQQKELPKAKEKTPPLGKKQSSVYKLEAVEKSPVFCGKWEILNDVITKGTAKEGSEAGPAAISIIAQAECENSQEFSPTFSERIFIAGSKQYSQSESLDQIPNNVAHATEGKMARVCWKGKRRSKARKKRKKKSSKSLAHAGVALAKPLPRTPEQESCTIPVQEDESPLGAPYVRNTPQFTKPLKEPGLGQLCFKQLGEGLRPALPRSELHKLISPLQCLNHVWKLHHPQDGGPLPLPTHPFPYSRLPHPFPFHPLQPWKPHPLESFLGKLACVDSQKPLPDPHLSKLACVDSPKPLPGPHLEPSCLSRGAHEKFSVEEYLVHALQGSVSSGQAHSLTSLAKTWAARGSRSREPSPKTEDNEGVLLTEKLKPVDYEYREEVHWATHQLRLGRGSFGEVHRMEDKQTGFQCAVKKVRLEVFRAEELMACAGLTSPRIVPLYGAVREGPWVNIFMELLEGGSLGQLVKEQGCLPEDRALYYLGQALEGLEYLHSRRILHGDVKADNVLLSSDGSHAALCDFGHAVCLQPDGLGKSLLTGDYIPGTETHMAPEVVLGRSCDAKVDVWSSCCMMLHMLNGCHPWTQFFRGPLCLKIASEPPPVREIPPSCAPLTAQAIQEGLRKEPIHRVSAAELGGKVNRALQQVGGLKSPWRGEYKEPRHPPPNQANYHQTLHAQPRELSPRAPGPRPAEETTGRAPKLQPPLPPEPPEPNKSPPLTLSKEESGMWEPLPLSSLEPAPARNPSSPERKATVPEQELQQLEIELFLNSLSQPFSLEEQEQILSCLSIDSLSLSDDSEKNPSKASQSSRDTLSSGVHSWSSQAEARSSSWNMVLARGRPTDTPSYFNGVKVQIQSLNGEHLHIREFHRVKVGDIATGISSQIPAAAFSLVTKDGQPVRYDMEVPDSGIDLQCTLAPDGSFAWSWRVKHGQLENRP

Structure (SMILES): Cc1cc(C(C)(O)C#Cc2ccc3nc(C4CC4)n(-c4ncnc(N)n4)c3c2)no1 (centres unmarked) [Example T1-60, 4-(1-(4-amino-1,3,5-triazin-2-yl)-2-cyclopropyl-1H-benzo [d]imidazol-6-yl)-2-(5-methyl-isoxazol-3-yl)but-3-yn-2-ol]
- IC50 [1]: 5100 nM
- Ki [2]: 2.2 nM
- IC50 [3]: 279 nM
- IC50 [4]: 1000 nM
- IC50 [5]: 552 nM
